Laboratory results as given in patent US20040002477A1, “Erectile dysfunction remedies containing prostaglandin derivatives as the active ingredient” (priority 2000, published 2004).

Experiments:
[1] = test system: corpus cavernosum; test: Corpus cavernosum relaxation activity in cats (norepinephrine-contracted isolated tissue, Magnus tube); type: cell-based; conditions: cat corpus cavernosum; for Corpus cavernosum relaxation rate: 10 μM norepinephrine contraction = 100%, Means ± SE
Procedure: Under anesthesia with urethane, penis of five cats (hybrid, weight about 3.5 kg) was removed. In the krebs solution, a corpus cavernosum was isorated, quartered and suspended with the tention of 200 mg in the Magnus tube. 10 μM norepinephrine was added and the tissue was constricted. Then the stable contraction was checked. After the addition of norepinephrine, (5Z, 9β, 11α, 13E)-17,17-propano-11,16-dihydroxy-9-chloro-20-norprosta-5,13-dienic acid·lysine salt (compound A) and (5Z, 9β, 11α, 13E)-17,17-propano-11,16-dihydroxy-9-chloroprosta-5,13,19-trienic acid (compound B), which are the compounds of the formula (I), were added respectively and the changes of the contraction were measured. As controls, PGE1 and 19-hydroxy-PGE2 were used. Each compounds were disolved in DMSO and used. The contraction induced by 10 μM norepinephrine was considered as 100% and the percentages of the relaxation rate were calculated.

[2] = rat, in vivo, iv
Procedure: It has been confirmed that the compounds used in the present invention of the formula (I) have sufficiently low toxicity and are sufficiently safe for use as pharmaceutical preparations. For example, the maximal tolerated dose of the compound A (lysine salts) in the compound of the formula (I) was 30 mg/kg weight or more for rat intravenous administration.

[3] = test system: human corpus cavernosum; test: Corpus cavernosum relaxation activity in human (noradrenalin-contracted isolated tissue, Magnus tube); type: cell-based; conditions: for Corpus cavernosum relaxation rate: 10 μM noradrenalin contraction = 100%, added cumulatively, Means ± SE
Procedure: The samples of the human corpus cavernosum taken at the time of operative treatment in agreement of the patient were suspended with the tention of 500 mg in the Magnus tube fulled by glucose-added Krebs buffer. The 10^−5M (10 μM) noradrenalin-induced contraction reaction, acetylcholine-induced relaxation reaction and electrostimulation(EFS)-induced contraction reaction were checked and the samples responded normaly were used in the experiment. It was reconstricted by 10 μM noradrenalin, the compound A used in the present invention of the formula (I) (n=4), the compound B used in the present invention of the formula (I) (n=5) or PGE1 (n=5), which were disolved by DMSO, were added cumulatively and the relaxation reacton was recorded on the chart. The contraction induced by 10 μM noradrenaline was concidered as 100% and the percentage of the relaxation rate was calculated.

| Compound | Corpus cavernosum relaxation rate ([1]; dose 0.3 μM) [%] | Corpus cavernosum relaxation rate ([1]; dose 1.0 μM) [%] | Maximal tolerated dose [2] [mg/kg weight] | Potency relative to PGE1 [3] [times] | Corpus cavernosum relaxation rate ([3]; dose 1.0 μM) [%] | Corpus cavernosum relaxation rate ([3]; dose 10 μM) [%] | Intensity of relaxation compared with PGE1 [1] | Relaxation of corpus cavernosum, dose dependence [1] | Corpus cavernosum relaxation rate ([1]; dose 0.1 μM) [%] |
| --- | --- | --- | --- | --- | --- | --- | --- | --- | --- |
| 19-hydroxy-PGE2 [reference compound] | 20.0 ± 4.2 | 27.2 ± 4.7 |  |  |  |  |  |  |  |
| CCC1(C(O)C/C=C/C2C(O)CC(Cl)C2C/C=C\CCCC(=O)O)CCC1.NCCCC[C@H](N)C(=O)O (stereo not drawn) [Compound A, (5Z, 9β, 11α, 13E)-17,17-propano-11,16-dihydroxy-9-chloro-20-norprosta-5,13-dienic acid·lysine salt] |  | 35.2 ± 2.8 | ≥ 30 | 1.6 | 29.9 ± 13.7 | 44.5 ± 12.6 | at the same level as PGE1 | dose-dependent relaxasions | 26.8 ± 4.2 |
| C=CCC1(C(O)C/C=C/[C@@H]2[C@@H](C/C=C\CCCC(=O)O)[C@H](Cl)C[C@H]2O)CCC1 (stereo partly drawn) [Compound B, (5Z, 9β, 11α, 13E)-17,17-propano-11,16-dihydroxy-9-chloroprosta-5,13,19-trienic acid] |  | 36.8 ± 4.2 |  | 1.6 | 25.0 ± 4.4 | 45.3 ± 4.5 | at the same level as PGE1 | dose-dependent relaxasions | 18.1 ± 4.8 |
| CCCCC[C@H](O)/C=C/[C@H]1[C@H](O)CC(=O)[C@@H]1CCCCCCC(=O)O [PGE1, prostaglandin E1, reference compound] |  | 35.5 ± 5.0 |  |  | 16.8 ± 7.2 | 27.9 ± 8.8 |  |  | 21.3 ± 2.3 |
